# From patent publication US20160150766A1, “ADVANCING GENETIC GAIN IN BOVINE” (priority 2013, published 2016)
# System: prepubescent calves
# Experiment: Laparoscopic oocyte retrieval from superstimulated prepubescent calves
# Format: in vivo, bovine
# Conditions: calves 3.5-6 months of age, superstimulated: progesterone CIDR, FSH s.c. at 12-hour intervals (20/15/10 mg/dose), 50 mg LH i.v.; aspiration 23 hours after LH
# Description: Laparoscopic oocyte retrieval in prepubescent calves younger than six months of age provides an avenue of shortening the generation interval, thus increasing the rate of genetic gain. […] Three laparoscopic oocyte retrievals were performed on each calf, and the oocytes collected were fertilized in vitro and cultured to the blastocyst stage of development. Resulting embryos were transferred fresh into synchronized recipients, and pregnancies were carried out to Day 60. On average, nine oocytes were retrieved per aspiration when the calves were superstimulated. An average of six oocytes were retrieved from calves that had no FSH treatment.
# Calves 3.5-6 months of age were used as egg donors. Initially a progesterone releasing device designed for sheep (Eazi Breed CIDR, Zoetis, USA) containing 0.3 g progesterone was inserted into the vagina of each calf and remained there for 12 days. The device was then removed for six days. A new CIDR was inserted and left for 12 days.
# Superstimulation started nine days after insertion of the CIDR with the injection of […] follicle stimulating hormone (FSH) s.c. at 12-hour intervals, starting with two doses of 20 mg/dose, then two doses of 15 mg/dose, and finally two doses of 10 mg by the last injections. The CIDR was removed at the time of the final FSH injection and 50 mg of LH administered i.v. 2.5 days after removal of the CIDR. […]
substance,measurement,value
follicle stimulating hormone [FSH],oocytes retrieved per aspiration (average),nine
